In patent publication US7407984B2, “Tetraoxaspriro anti-malarials” (Okayama University, priority 2002, dated 2008):
In brackets after ≈: the same amount, converted by molar mass. Where two headings read alike, the source gives them in different places.

Columns and labels:
[1] = system: chloroquine-resistant malaria parasite of P. falciparum K-1 strain; experiment: Growth inhibition screening test of chloroquine-resistant P. falciparum (K-1 strain); type: cell-based; settings: read-out: EC50 (M) Chloroquine-resistant P. falciparum K1
Procedure: (§1) A filter-sterilized RPMI1640 medium (pH 7.4) was added with human serum such that the serum made up 10% of the medium, and used in the experiment. P. falciparum were cultured in O2 at a concentration of 5%, CO2 at a concentration of 5% and N2 at a concentration of 90%, at a temperature of 36.5° C. Hematocrit value (ratio of volume of erythrocytes in erythrocyte suspension) was adjusted to be 5%, and initial infection rate of P. falciparum at the beginning of culture was adjusted to be 0.1%. A 24-well plate was used for culture and a medium was replaced everyday, and cultures were transferred at infection rate of 4%. A thin-layer smear was constructed and subjected to Giemsa staining or Diff-Qick staining, and followed by measurement under a microscope (oil immersion, 1000×), and then infection rate of P. falciparum was calculated according to the following formula. Infection rate of P. falciparum (%)={(number of infected erythrocytes)/(total number of erythrocytes)}×100 […]
(§2) Cultured erythrocytes infected with P. falciparum were gathered by centrifugation and washed with a medium containing serum, then noninfected erythrocytes were added, and initial infection rate was adjusted to be 0.3%. Hematocrit value in this case was 3%. […] These samples were dissolved into sterilized water, dimethylformamide (DMF) or dimethylsulfoxide (DMSO), and sample solutions at prescribed concentration were prepared. 5 to 10 μl each of the sample solutions was added to a 24-well culture plate. For each sample, 2 to 3 experiments were conducted. In addition, for control, sterilized water, DMF or DMSO was added by 10 μl/well. […] The culture plate was put into a CO2—O2—N2 (5%, 5%, 90%) incubator and culture was conducted for 72 hours, then a thin-layer smear was constructed for each well, Giemsa staining or Diff-Qick staining was conducted, followed by measurement under a microscope (oil immersion, 1000×), and then infection rates of P. falciparum in a group supplemented with a reagent and in controls were calculated. The growth rate was calculated according to the following formula based on the infection rate of P. falciparum as calculated above. Growth rate (%)={([b]−[a])/([c]−[a])}×100 […]
(§3) a: initial infection rate b: infection rate when sample solution added c: infection rate of a control
(§4) EC50 is a value expressed by molar concentration: when growth rate of control wherein sample solution is not added to a medium of P. falciparum is defined as 100%, EC50 indicates a concentration of a sample wherein infection rate of P. falciparum in control is inhibited by 50% due to the addition of sample solution.

physchem = experiment: physchem
Source text: As to 6-(1,2,6,7-tetraoxaspiro[7.11]nonadecy-4-yl)hexane-1-ole (N251), 5-(1,2,6,7-tetraoxaspiro[7.11]nonadecy-4-yl)pentane-1-carboxylic acid (N251-1), succinic acid mono-[6-(1,2,6,7-tetraoxaspiro[7.11]nonadecy-4-yl)hexyl]ester (N251-2), all obtained in Example 9, and 1,2,6,7-tetraoxaspiro[7.11]nonadecane (N89), artemisinin, artesunate (trade name: Guilin No. 2, Pharmaceutical Factory, Guangxi, China) as comparative examples, solubility to 5% of sodium bicarbonate water and dimethylsulfoxide (DMSO) was measured.

[2] = system: P. falciparum FCR-3 strain (ATCC30932); experiment: Growth inhibition screening test of P. falciparum (FCR-3 strain); type: cell-based; settings: read-out: EC50 (M) P. falciparum FCR-3
Procedure: as §1, §2, §3, §4

[3] = system: P. falciparum versus mouse FM3A cells; experiment: Assessment of drug efficacy (chemotherapeutic coefficient, selective toxicity against P. falciparum); type: cell-based; settings: IC50 for mouse FM3A cells ÷ EC50 for P. falciparum (values fit FCR-3)
Procedure: Evaluation of antimalarial activity of samples was conducted on the basis of chemotherapeutic coefficient used as an index of selective toxicity against P. falciparum. Chemotherapeutic coefficient was calculated by the following formula as a ratio of EC50 value of each sample used for P. falciparum to IC50 value of each sample used for mouse FM3A cells, and drug efficacy was assessed based on the calculated values.
Chemotherapeutic coefficient=(IC50 value of the sample for mouse […] cells)÷(EC50 value of the sample for P. falciparum)

[4] = system: murine malaria parasites (P. berghei NK65 strain); experiment: Parasite suppression test using mice infected with murine malaria parasite (4-day suppressive test); type: in vivo; settings: for ED50 / cure of infected mice / ED90: mice infected with P. berghei NK65; for ED50 / ED90: once a day for 4 days, orally or intraperitoneally in olive oil; for ED50: 50% of parasites suppressed; for cure of infected mice: N251 and N89: with 50 mg/kg; for ED90: 90% of parasites suppressed
[5] = system: mouse breast cancer-derived FM3A cells (F28-7 strain); experiment: Growth inhibition test of mouse FM3A cells; type: cell-based; settings: read-out: IC50 (M) Cancer cells of mice FM3A
Procedure: An F28-7 strain, a wild-type strain of mouse breast cancer-derived FM3A cells, was used. Immobilized fetal bovine serum was added to an ES medium such that the serum made up 2% of the medium, and culture was conducted in CO2 at a concentration of 5%, and at 37° C. […] Cells which had been precultured and entered to logarithmic growth phase were diluted to be 5×10^4 cells/ml in the medium. A sample prepared at the time of the measurement of antimalarial activity of P. falciparum was used. […] For each test sample, 2 to 3 experiments were conducted, and wells added with 10 μl each of sterilized water, DMF and DMSO were tested at the same time as controls. Next, a prepared suspension of cultured cells was added, by 990 to 995 μl each, and when medium and the like were added, the final concentration of test samples became 1×10^−4 to 1×10^−6M. By pipetting gently, these substances were uniformly suspended in media.
Based on the counted number of cells, growth rate was calculated by the following formula. Growth rate (%)={([C]−[A])/([B]−[A])}×100
A: the number of cells at the beginning
B: the number of cells in a control after 48 hours
C: the number of cells 48 hours after sample addition
Based on the calculated growth rate, IC50, cell growth inhibitory concentration, was calculated, and cytotoxicity of samples was evaluated as cell growth inhibitory activity.

[6] = Plasmodium falciparum, K1 chloroquine-resistant strain, 72 hours culture
[7] = Plasmodium falciparum, FCR-3 strain, 72 hours culture, infection rate by Giemsa or Diff-Qick staining
[8] = Plasmodium berghei, 96 h, read-out: ED50
[9] = Mus musculus, FM3A cells, 48 hours culture, cell count, cytotoxicity

SMILES: C[C@@H]1CC[C@H]2[C@@H](C)C(=O)O[C@@H]3O[C@@]4(C)CC[C@@H]1[C@]32OO4 [Artemisinin, artemisinin]
- EC50 [1, 6]: 1.3e-08 M
- solubility to DMSO (physchem): insoluble
- EC50 [2, 7]: 1e-08 M
- IC50/EC50 Chemotherapeutic coefficient [3]: 1000
- ED50 [4, 8]: 6 mg/kg
- cure of infected mice [4]: Not cured
- ED90 [4]: 10.3 mg/kg
- IC50 [5, 9]: 1e-05 M

SMILES: CCN(CC)CCCC(C)Nc1ccnc2cc(Cl)ccc12 (centres unmarked) [Chloroquine, chloroquine]
- EC50 ([1]; Plasmodium falciparum, K1, 72 h): 1.3e-07 M
- EC50 ([2]; Plasmodium falciparum, 72 h): 1.8e-08 M
- IC50 ([5]; Mus musculus, FM3A, 48 h): 3.2e-05 M

SMILES: C1CCCCCC2(CCCCC1)OOCCCOO2 [N89, 1,2,6,7-tetraoxaspiro[7.11]nonadecane]
- EC50 [1, 6]: 2.6e-08 M
- solubility to DMSO (physchem): insoluble
- EC50 [2, 7]: 2.5e-08 M
- IC50/EC50 Chemotherapeutic coefficient [3]: 328
- ED50 [4, 8]: 12 mg/kg
- cure of infected mice [4]: All cured
- ED90 [4]: 20 mg/kg
- IC50 [5, 9]: 8.2e-06 M

SMILES: OCCCCCCC1COOC2(CCCCCCCCCCC2)OOC1 [N251, 6-(1,2,6,7-tetraoxaspiro[7.11]nonadecy-4-yl)hexane-1-ole]
- EC50 ([1]; K1 chloroquine-resistant strain, 72 hours culture): 2e-08 M
- solubility to DMSO (physchem): insoluble
- EC50 ([2]; FCR-3 strain, 72 hours culture, infection rate by Giemsa or Diff-Qick staining): 2.3e-08 M
- IC50/EC50 Chemotherapeutic coefficient [3]: 348
- ED50 (mg/kg) on N89 basis ([4]; ED50 of N251 converted to N89 basis (molar comparison)): [<7 on N89 basis] mg/kg
- ED90 (mg/kg) on N89 basis ([4]; ED90 of N251 converted to N89 basis (molar comparison)): [13 on N89 basis] mg/kg
- cure of infected mice [4]: All cured
- ED50 [4]: <10 mg/kg
- ED90 [4]: 18 mg/kg
- IC50 ([5]; FM3A cells, 48 hours culture, cell count, cytotoxicity): 8e-06 M

SMILES: O=C(O)CCCCCC1COOC2(CCCCCCCCCCC2)OOC1 [N251-1, 5-(1,2,6,7-tetraoxaspiro[7.11]nonadecy-4-yl)pentane-1-carboxylic acid]
- solubility to 5% of sodium bicarbonate water (physchem; 5% of sodium bicarbonate water): 50 mg/mL

SMILES: O=C(O)CCC(=O)OCCCCCCC1COOC2(CCCCCCCCCCC2)OOC1 [N251-2, succinic acid mono-[6-(1,2,6,7-tetraoxaspiro[7.11]nonadecy-4-yl)hexyl]ester]
- solubility to 5% of sodium bicarbonate water (physchem): 100 mg/mL

SMILES: C[C@H]1[C@H](OC(=O)CCC(=O)O)O[C@@H]2O[C@@]3(C)CC[C@H]4[C@H](C)CC[C@@H]1[C@@]24OO3 [artesunate]
- solubility (physchem; aqueous buffer): 100 mg/mL (≈ 260 mM)
